ChEMBL document CHEMBL3045550, “Design, synthesis and biological activities of new strobilurin derivatives containing substituted pyrazoles” (2010)

Columns and labels:
Assay type in all cases: functional
[1] = test system: Tetranychus cinnabarinus; test: Acaricidal activity against Tetranychus cinnabarinus (carmine spider mite) in kidney bean plants assessed as mortality at 1.25 mg/l after 48 hr relative to control
[2] = test system: Tetranychus cinnabarinus; test: Acaricidal activity against Tetranychus cinnabarinus (carmine spider mite) in kidney bean plants assessed as mortality at 2.5 mg/l after 48 hr relative to control
[3] = test system: Tetranychus cinnabarinus; test: Acaricidal activity against Tetranychus cinnabarinus (carmine spider mite) in kidney bean plants assessed as mortality at 5 mg/l after 48 hr relative to control
[4] = test system: Tetranychus cinnabarinus; test: Acaricidal activity against Tetranychus cinnabarinus (carmine spider mite) in kidney bean plants assessed as mortality at 10 mg/l after 48 hr relative to control
[5] = test system: Tetranychus cinnabarinus; test: Acaricidal activity against Tetranychus cinnabarinus (carmine spider mite) in kidney bean plants assessed as mortality at 20 mg/l after 48 hr relative to control
[6] = test system: Tetranychus cinnabarinus; test: Acaricidal activity against Tetranychus cinnabarinus (carmine spider mite) in kidney bean plants assessed as mortality at 40 mg/l after 48 hr relative to control
[7] = test system: Tetranychus cinnabarinus; test: Acaricidal activity against Tetranychus cinnabarinus (carmine spider mite) in kidney bean plants assessed as mortality at 38 mg/l after 48 hr relative to control
[8] = test system: Tetranychus cinnabarinus; test: Acaricidal activity against Tetranychus cinnabarinus (carmine spider mite) in kidney bean plants assessed as mortality at 150 mg/l after 48 hr relative to control
[9] = test system: Tetranychus cinnabarinus; test: Acaricidal activity against Tetranychus cinnabarinus (carmine spider mite) in kidney bean plants assessed as mortality at 600 mg/l after 48 hr relative to control
[10] = test system: Blumeria graminis f. sp. tritici; test: Antifungal activity against Blumeria graminis f. sp. tritici infected seven-day-old wheat seedlings assessed as disease control at 1.56 mg/l after 7 days relative to control
[11] = test system: Blumeria graminis f. sp. tritici; test: Antifungal activity against Blumeria graminis f. sp. tritici infected seven-day-old wheat seedlings assessed as disease control at 12.5 mg/l after 7 days relative to control
[12] = test system: Blumeria graminis f. sp. tritici; test: Antifungal activity against Blumeria graminis f. sp. tritici infected seven-day-old wheat seedlings assessed as disease control at 400 mg/l after 7 days relative to control
[13] = test system: Pseudoperonospora cubensis; test: Antifungal activity against Pseudoperonospora cubensis infected cucumber leaves assessed as disease control at 3.12 mg/l after 5 days relative to control
[14] = test system: Pseudoperonospora cubensis; test: Antifungal activity against Pseudoperonospora cubensis infected cucumber leaves assessed as disease control at 6.25 mg/l after 5 days relative to control
[15] = test system: Pseudoperonospora cubensis; test: Antifungal activity against Pseudoperonospora cubensis infected cucumber leaves assessed as disease control at 25 mg/l after 5 days relative to control
[16] = test system: Pseudoperonospora cubensis; test: Antifungal activity against Pseudoperonospora cubensis infected cucumber leaves assessed as disease control at 400 mg/l after 5 days relative to control
[17] = test system: Botrytis cinerea; test: Antifungal activity against Botryotinia fuckeliana infected cucumber leaves assessed as disease control at 400 mg/l after 4 days relative to control
[18] = test system: Pyricularia oryzae; test: Antifungal activity against Magnaporthe oryzae infected 12 day old rice plant assessed as disease control at 400 mg/l after 6 days relative to control

CO/C=C(/C(=O)OC)c1ccccc1COc1c(C)c(-c2ccc(C)cc2C)nn1C
Activity [1]: 28% | Activity [2]: 36% | Activity [3]: 85% | Activity [4]: 89% | Activity [5]: 100% | Activity [6]: 100% | Activity [7]: 100% | Activity [8]: 100% | Activity [9]: 100% | Activity [10]: 90% | Activity [11]: 100% | Activity [12]: 100% | Activity [13]: 80% | Activity [14]: 98% | Activity [15]: 100% | Activity [16]: 100% | Activity [17]: 50% | Activity [18]: 100%

CO/C=C(/C(=O)OC)c1ccccc1COc1c(C)c(-c2ccc(OC)cc2)nn1C [METHYL 3-METHOXY-2-(2-((3-(4-METHOXYPHENYL)-1,4-DIMETHYL-1H-PYRAZOL-5-YLOXY)METHYL)PHENYL)ACRYLATE]
Activity [7]: 0% | Activity [8]: 0% | Activity [9]: 90% | Activity [10]: 95% | Activity [11]: 100% | Activity [12]: 100% | Activity [13]: 55% | Activity [14]: 96% | Activity [15]: 100% | Activity [16]: 100% | Activity [17]: 100% | Activity [18]: 100%

CO/C=C(/C(=O)OC)c1ccccc1COc1cc(-c2ccc(Cl)cc2)nn1C [PYRAOXYSTROBIN]
Activity [7]: 0% | Activity [8]: 0% | Activity [9]: 100% | Activity [10]: 0% | Activity [11]: 75% | Activity [12]: 100% | Activity [13]: 100% | Activity [14]: 100% | Activity [15]: 100% | Activity [16]: 100% | Activity [17]: 100% | Activity [18]: 100%

CC(C)(C)c1ccc(CSc2cnn(C(C)(C)C)c(=O)c2Cl)cc1 [PYRIDABEN]
Activity [1]: 0% | Activity [2]: 12% | Activity [3]: 22% | Activity [4]: 48% | Activity [5]: 57% | Activity [6]: 77%
